Test results reported in US7919495B2, “Pyridyl non-aromatic nitrogen-containing heterocyclic-1-carboxylate compound” (Astellas Pharma, Inc., priority 2005, dated 2011).

How the values were obtained:
[1] = biological target: FAAH (rat brain homogenate) (Rattus norvegicus, UniProt P97612); assay: biochemical
[2] = system: CPA-induced urinary frequency in rat; assay: animal or person; assay type: in vivo; details: po, 48 h, read-out: effective dose (increase of reduced effective bladder capacity)
[3] = biological target: T1, FAAH in human bladder epithelial cancer-derived cell line 5678 cells (Homo sapiens, UniProt O00519); assay: Screening for FAAH activity-inhibiting substance with human bladder epithelial cancer-derived cell (IC50, Table 64); assay type: cell-based
T1 construct: host or cells: human bladder epithelial cancer-derived cell line ('5678' [sic], HTB-9)
T1 sequence (O00519 1-579): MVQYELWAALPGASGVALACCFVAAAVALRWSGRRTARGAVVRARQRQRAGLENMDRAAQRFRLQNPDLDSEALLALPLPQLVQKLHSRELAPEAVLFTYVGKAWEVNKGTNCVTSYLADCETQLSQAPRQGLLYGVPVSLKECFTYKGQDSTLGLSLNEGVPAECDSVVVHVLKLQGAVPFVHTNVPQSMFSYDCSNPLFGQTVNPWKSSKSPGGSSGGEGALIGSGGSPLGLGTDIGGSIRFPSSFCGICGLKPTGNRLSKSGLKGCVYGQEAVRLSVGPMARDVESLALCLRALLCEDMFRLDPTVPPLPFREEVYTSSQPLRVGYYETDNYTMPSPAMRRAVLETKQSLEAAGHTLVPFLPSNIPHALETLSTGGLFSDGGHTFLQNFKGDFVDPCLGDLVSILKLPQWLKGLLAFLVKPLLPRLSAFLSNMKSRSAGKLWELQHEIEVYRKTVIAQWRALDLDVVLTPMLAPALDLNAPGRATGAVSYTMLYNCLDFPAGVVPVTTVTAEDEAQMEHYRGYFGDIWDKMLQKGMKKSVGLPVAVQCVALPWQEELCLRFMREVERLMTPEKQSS
Experimental: Screening for FAAH Activity-Inhibiting Substance with Human Bladder Epithelial Cancer-Derived Cell
(1) Screening for FAAH Activity-Inhibiting Substance:
Human bladder epithelial cancer-derived cell line […] cells (HTB-9; ATCC) were seeded on a 48-well cell culture plate in an amount of 1×10^5 cell/well, using 10% fetal bovine serum (HyClone)-containing RPMI1640 medium (Invitrogen). After incubated at 37° C. for at least 12 hours, the cells were washed with 400 μl/well of a buffer (Hank's Balanced Salt Solution, 20 mM Hepes-NaOH (pH 7.4)). A test substance dissolved in DMSO was added to a substrate solution (the above buffer containing 3 μCi/ml radiolabeled anandamide (Anandamide [ethanolamine 1-3H]) and 10 μM anandamide) so as to have a concentration of from 0.003 nM to 30 nM. As a control, DMSO alone was added. 100 μl/well of the substrate solution was added to the above cells, and incubated in a CO2 incubator at 37° C. for 30 minutes. Next, the cell culture plate was transferred onto ice, and the substrate solution was removed by suction; and 75 μl/well of a cytolytic solution (the above buffer containing 0.5% Triton X-100, and 10 μM of FAAH-inhibitory activity-having compound, 3′-carbamoylbiphenyl-3-yl cyclohexylcarbamate (URB597; Cayman chemical; Kathuria et al., Nature Med., Vol. 9, pp. 76-81, 2003)) was added thereto, followed by stirring. The resulting cell lysate in every well was individually transferred into a 1.5 ml sample tube, to which was added 150 μl of 1:1 (by volume) chloroform/methanol solution, followed by vortexing. This was centrifuged (15000 rpm, 2 minutes), whereby the decomposed product, ethanolamine (ethanolamine 1-^3H) was separated in the upper layer (water/methanol layer) and the unreacted radiolabeled anandamide was in the lower layer (chloroform layer). 25 μl of the upper layer was transferred into a 96-well organic solvent-resistant white microplate (PicoPlate-96; Perkin Elmer), 150 μl of Microscint-20 (Perkin Elmer) was added thereto, and this was measured with a microplate scintillation counter (TopCount™; Beckman). As compared with the control, the substance that gave a decreased value was selected as an FAAH activity-inhibiting substance.
(2) Measurement of IC50 Value of FAAH Activity-Inhibiting Substance:
A test compound dissolved in DMSO to have a concentration of 10 mM was dissolved in the substrate solution so as to have a varying concentration of from 0.003 nM to 30 μM. According to the method mentioned above, the compound was analyzed for its influence on FAAH activity. As a negative control, DMSO was used. As a positive control, URB597 was added to the substrate solution to have a concentration of 10 μM. Based on the measured value of the positive control, 0%, and on the measured value of the negative control, 100%, IC50 value of the test substance was obtained.

FAAH (rat brain homogenate), sequence (P97612 whole entry): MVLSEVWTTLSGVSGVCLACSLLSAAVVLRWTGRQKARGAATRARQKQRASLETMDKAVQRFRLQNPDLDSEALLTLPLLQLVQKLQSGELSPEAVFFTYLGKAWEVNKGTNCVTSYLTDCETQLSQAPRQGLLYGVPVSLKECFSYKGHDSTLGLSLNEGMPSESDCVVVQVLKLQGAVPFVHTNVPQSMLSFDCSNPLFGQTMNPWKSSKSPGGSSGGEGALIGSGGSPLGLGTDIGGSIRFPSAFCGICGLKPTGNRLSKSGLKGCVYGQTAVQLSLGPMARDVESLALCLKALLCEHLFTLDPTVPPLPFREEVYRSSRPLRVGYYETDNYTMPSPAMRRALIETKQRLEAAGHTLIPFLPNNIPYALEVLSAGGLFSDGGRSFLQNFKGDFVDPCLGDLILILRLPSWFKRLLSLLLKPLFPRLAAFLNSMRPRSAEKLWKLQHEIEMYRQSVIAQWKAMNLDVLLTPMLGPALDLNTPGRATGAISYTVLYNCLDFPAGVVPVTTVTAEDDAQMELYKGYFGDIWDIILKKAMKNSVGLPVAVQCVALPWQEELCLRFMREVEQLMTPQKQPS

Row | SMILES | IC50 [1] | minimal effective dose [2] | IC50 [3]
1 | O=C(O)c1cncc(OC(=O)N2CCC(Oc3ccc(OCCC4CCCCC4)cc3)CC2)c1 [Example 228] | 0.19 nM | 1 mg/kg | 0.22 nM
2 | CN(C)C(=O)c1cccc(CCC2CCN(C(=O)Oc3cncc(C(N)=O)c3)CC2)c1 [Example 325] |  | 1 mg/kg | 0.54 nM
3 | N#Cc1cccc(COc2ccc(C(=O)N3CCN(C(=O)Oc4cccnc4)CC3)cc2)c1 [Example 151] | 27 nM |  | 0.17 nM
4 | NC(=O)c1cncc(OC(=O)N2CCC(CCc3cccc(C(=O)N4CCCC4)c3)CC2)c1 [Example 359] | 1.3 nM | 1 mg/kg | 0.52 nM
5 | Cc1cccc(N2CCC(CCCC3CCN(C(=O)Oc4cncc(C(=O)O)c4)CC3)CC2)n1 [Example 313] |  | 1 mg/kg | 0.89 nM
6 | O=C(Oc1cccnc1)N1CCC(Oc2ccc(OCc3cccc(F)c3)cc2)CC1 [Example 2, (pyridin-3-yl) 4-{4-[(3-fluorobenzyl)oxy]phenoxy}piperidine-1-carboxylate] | 0.14 nM | 3 mg/kg | 0.11 nM
